Measurements reported in ChEMBL document CHEMBL1201862, “PubChem BioAssay data set” (2004).
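Dose response: 5 concentrations. Exposure: 48 h. Format: 96-well plates. Endpoint: linear interpolation; highest concentration if not reached. GI50 marks 50% less growth.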 Active and inactive are the calls of the source. Cut-off read from the data, not from the text of the source: active = GI50 up to about 1.1 µM and inactive = higher. Where a SMILES comes first, the peptide text is derived from it. [ ]: non-standard residue; d: D form. The star is where a group is joined. ξ: configuration not given here. ξPhe(4-NO2) = NC(Cc1ccc([N+](=O)[O-])cc1)C(=O)O; Boc = CC(C)(C)OC(=O)*

Tests used:
Assay in all cases: growth of human tumour cells (NCI), 48 h
COLO 205 = system: COLO 205
HT-29 = system: HT-29
CCRF-CEM = system: CCRF-CEM
UACC-257 = system: UACC-257
IGROV-1 = system: IGROV-1
NCI-H522 = system: NCI-H522
M14 = system: M14
Malme-3M = system: Malme-3M
SF-295 = system: SF-295
SF-268 = system: SF-268
KM12 = system: KM12
LOX IMVI = system: LOX IMVI
SR = system: SR
A498 = system: A498
SK-MEL-2 = system: SK-MEL-2
OVCAR-5 = system: OVCAR-5
MDA-N = system: MDA-N
T47D = system: T47D
SNB-19 = system: SNB-19
SK-OV-3 = system: SK-OV-3

Compound | GI50 (COLO 205) | GI50 (HT-29) | GI50 (CCRF-CEM) | GI50 (UACC-257) | GI50 (IGROV-1) | GI50 (NCI-H522) | GI50 (M14) | GI50 (Malme-3M) | GI50 (SF-295) | GI50 (SF-268) | GI50 (KM12) | GI50 (LOX IMVI) | GI50 (SR) | GI50 (A498) | GI50 (SK-MEL-2) | GI50 (OVCAR-5) | GI50 (MDA-N) | GI50 (T47D) | GI50 (SNB-19) | GI50 (SK-OV-3)
COc1ccc2c3c1O[C@H](c1ccc(O)cc1)[C@H]3[N+](C)(C)CC2 | 68.4 µM (inactive) | > 100 µM (inactive) | > 100 µM (inactive) | > 100 µM (inactive) | > 100 µM (inactive) | 42.8 µM (inactive) | > 100 µM (inactive) | > 100 µM (inactive) | > 100 µM (inactive) | > 100 µM (inactive) | > 100 µM (inactive) | > 100 µM (inactive) | > 100 µM (inactive) | > 100 µM (inactive) | > 100 µM (inactive) | > 100 µM (inactive) | > 100 µM (inactive) | > 100 µM (inactive) | 49.2 µM (inactive) | > 100 µM (inactive)
COc1ccc2nc3ccc(OC)cc3c(S(=O)(=O)Cc3ccc([N+](=O)[O-])cc3)c2c1 | > 100 µM (inactive) | 68.7 µM (inactive) | > 100 µM (inactive) | > 100 µM (inactive) | > 100 µM (inactive) | > 100 µM (inactive) | > 100 µM (inactive) | > 100 µM (inactive) | 61.5 µM (inactive) | 85.5 µM (inactive) | > 100 µM (inactive) | > 100 µM (inactive) | > 100 µM (inactive) | > 100 µM (inactive) | > 100 µM (inactive) | > 100 µM (inactive) | > 100 µM (inactive) | > 100 µM (inactive) | > 100 µM (inactive) | > 100 µM (inactive)
NC(Cc1c[nH]c2ccccc12)P(=O)(O)O (configuration not stated) | > 100 µM (inactive) | > 100 µM (inactive) | > 100 µM (inactive) | > 100 µM (inactive) | > 100 µM (inactive) | > 100 µM (inactive) | > 100 µM (inactive) | > 100 µM (inactive) | > 100 µM (inactive) | > 100 µM (inactive) | > 100 µM (inactive) |  | > 100 µM (inactive) | > 100 µM (inactive) | > 100 µM (inactive) | > 100 µM (inactive) | > 100 µM (inactive) | > 100 µM (inactive) | > 100 µM (inactive) | > 100 µM (inactive)
CCCCOc1ccc(/C=C/C2=[N+](CCO)CCO2)cc1 | 24.7 µM (inactive) | 17.6 µM (inactive) | 30.4 µM (inactive) | > 100 µM (inactive) | 85.5 µM (inactive) | 21.5 µM (inactive) | 76.7 µM (inactive) | 80 µM (inactive) | 48.5 µM (inactive) | > 100 µM (inactive) | 34 µM (inactive) |  | 38 µM (inactive) | > 100 µM (inactive) | > 100 µM (inactive) | > 100 µM (inactive) | > 100 µM (inactive) | 30.5 µM (inactive) | > 100 µM (inactive) | > 100 µM (inactive)
CC1ON2CCCC2[C@H]1C(=O)N1C2CC3CCC2(CS1(=O)=O)C3(C)C (some centres not stated) | > 100 µM (inactive) | > 100 µM (inactive) | > 100 µM (inactive) | > 100 µM (inactive) | > 100 µM (inactive) | > 100 µM (inactive) | > 100 µM (inactive) | > 100 µM (inactive) | > 100 µM (inactive) | > 100 µM (inactive) | > 100 µM (inactive) | > 100 µM (inactive) | > 100 µM (inactive) | > 100 µM (inactive) | > 100 µM (inactive) | > 100 µM (inactive) | > 100 µM (inactive) | > 100 µM (inactive) |  | > 100 µM (inactive)
CCN(CC)/C(Cl)=C(Cl)\C(=C1\Nc2ccc(OC)cc21)[N+](=O)[O-] | 43.4 µM (inactive) | 56.2 µM (inactive) | 20.1 µM (inactive) | 75.5 µM (inactive) | 88.1 µM (inactive) | 20.2 µM (inactive) | > 100 µM (inactive) | > 100 µM (inactive) | 45.8 µM (inactive) | 50.4 µM (inactive) | 69.5 µM (inactive) | 38.7 µM (inactive) | 16.6 µM (inactive) | > 100 µM (inactive) |  | 95.7 µM (inactive) | 50.4 µM (inactive) | 24.6 µM (inactive) | 61 µM (inactive) | 75.5 µM (inactive)
CN(Cc1cc(Cl)cc(Cl)c1O)Cc1c(O)ccc2ccccc12 | 16.9 µM (inactive) | 27.9 µM (inactive) |  | 18.2 µM (inactive) | 17.3 µM (inactive) | 15 µM (inactive) | 20.2 µM (inactive) | 14.9 µM (inactive) | 17.2 µM (inactive) | 13.6 µM (inactive) | 19.9 µM (inactive) | 16.7 µM (inactive) | 23.8 µM (inactive) | 17.1 µM (inactive) | 19.3 µM (inactive) | 23.1 µM (inactive) | 24.9 µM (inactive) | 19.2 µM (inactive) | 19.8 µM (inactive) | 18.2 µM (inactive)
CCNC(=O)CNC(=O)C(Cc1ccc([N+](=O)[O-])cc1)NC(=O)OC(C)(C)C (configuration not stated) (Boc-[ξPhe(4-NO2)]-Gly-NHEt) | > 100 µM (inactive) | > 100 µM (inactive) | > 100 µM (inactive) |  | > 100 µM (inactive) | > 100 µM (inactive) | > 100 µM (inactive) | > 100 µM (inactive) | > 100 µM (inactive) | > 100 µM (inactive) | > 100 µM (inactive) | > 100 µM (inactive) | > 100 µM (inactive) | 53.6 µM (inactive) |  | > 100 µM (inactive) | > 100 µM (inactive) | > 10 µM (inactive) | > 100 µM (inactive) | > 100 µM (inactive)
Nc1cc(N)c(/N=N/c2cccc3c(S(=O)(=O)O)cccc23)cc1/N=N/c1cc([N+](=O)[O-])ccc1O | 38.5 µM (inactive) | 43.8 µM (inactive) |  | 26.3 µM (inactive) | 15.6 µM (inactive) | 17.5 µM (inactive) | 26.1 µM (inactive) | 17.3 µM (inactive) | 32.2 µM (inactive) | 6.62 µM (inactive) | 33.2 µM (inactive) | 13.6 µM (inactive) | 13.5 µM (inactive) | 27 µM (inactive) | 22.4 µM (inactive) | 23.3 µM (inactive) | 46.9 µM (inactive) | 38.8 µM (inactive) | 48.9 µM (inactive) | 59.7 µM (inactive)
O=C(CSC1=NCCN1)Nc1ccccc1 |  | 31.4 µM (inactive) | 67.9 µM (inactive) | 17.1 µM (inactive) | 33.4 µM (inactive) | 19 µM (inactive) | 32.9 µM (inactive) | 24.8 µM (inactive) | 29.4 µM (inactive) | 33.3 µM (inactive) | 48 µM (inactive) | 18 µM (inactive) | 44.3 µM (inactive) | 35 µM (inactive) | 17.8 µM (inactive) | 29.3 µM (inactive) | 17.7 µM (inactive) | 12.9 µM (inactive) | 69.3 µM (inactive) | 
C[C@H](N)C(=O)N[C@@H]1[C@H]2C(=C(O)C[C@@H](O)[C@@H]2O)C(=O)O[C@]1(C)C(Cl)Cl [BACTOBOLIN] | 0.105 µM (active) | 0.155 µM (active) |  | 0.378 µM (active) | 0.361 µM (active) | 0.16 µM (active) | 0.128 µM (active) | 0.278 µM (active) | 0.18 µM (active) | 0.184 µM (active) | 0.172 µM (active) | 0.0946 µM (active) | 0.0776 µM (active) | 0.329 µM (active) | 0.222 µM (active) | 0.604 µM (active) | 0.105 µM (active) | 0.209 µM (active) | 0.167 µM (active) | 0.271 µM (active)
c1ccc2c(c1)nnn2CN1CCOCC1 |  | > 100 µM (inactive) |  | > 100 µM (inactive) | 94.4 µM (inactive) | > 100 µM (inactive) | > 100 µM (inactive) | 41.8 µM (inactive) | > 100 µM (inactive) | 63.8 µM (inactive) | > 100 µM (inactive) | 36.6 µM (inactive) | 25 µM (inactive) | > 100 µM (inactive) | > 100 µM (inactive) | > 100 µM (inactive) | 71.6 µM (inactive) | > 100 µM (inactive) | > 100 µM (inactive) | 
CCCn1cnc2c(SCc3ccc(Cl)cc3)nc(N)nc21 |  | 19.9 µM (inactive) | 34.2 µM (inactive) | 18.5 µM (inactive) | 40.4 µM (inactive) | 16.5 µM (inactive) | 32.4 µM (inactive) | 26.9 µM (inactive) | 21.6 µM (inactive) | 36.3 µM (inactive) | 21.5 µM (inactive) | 22 µM (inactive) | 13.5 µM (inactive) | 16.7 µM (inactive) | 18.4 µM (inactive) | 28.4 µM (inactive) | 21.9 µM (inactive) | 18.9 µM (inactive) | 51.6 µM (inactive) | 27.9 µM (inactive)
CC(CO)CCNc1ncnc2c1ncn2CCC#N (configuration not stated) | > 100 µM (inactive) | > 100 µM (inactive) | > 100 µM (inactive) | > 100 µM (inactive) | > 100 µM (inactive) | > 100 µM (inactive) | > 100 µM (inactive) | > 100 µM (inactive) | > 100 µM (inactive) | > 100 µM (inactive) | > 100 µM (inactive) | > 100 µM (inactive) | > 100 µM (inactive) | > 100 µM (inactive) |  | > 100 µM (inactive) | > 100 µM (inactive) | > 100 µM (inactive) | > 100 µM (inactive) | > 100 µM (inactive)
O=C(O)c1nc2ccccc2nc1Nc1ccc(Cl)c(Cl)c1 | 23.5 µM (inactive) |  | 17.8 µM (inactive) | 31.8 µM (inactive) | 20.5 µM (inactive) | 17 µM (inactive) | 24.5 µM (inactive) | 18.4 µM (inactive) | 17.3 µM (inactive) | 17.9 µM (inactive) | 10.8 µM (inactive) | 28.8 µM (inactive) | 47.9 µM (inactive) | 13.1 µM (inactive) |  | 39.6 µM (inactive) | 24.9 µM (inactive) | 17.7 µM (inactive) | 24.9 µM (inactive) | 28.3 µM (inactive)
